Source: patent US20230087609A1, “USE OF A SOLUBLE GUANYLATE CYCLASE (sGC) STIMULATOR OR OF A COMBINATION OF A sGC STIMULATOR AND AN sGC ACTIVATOR FOR CONDITIONS WHEREIN THE HEME GROUP OF sGC IS OXIDIZED OR WHEREIN sGC IS DEFICIENT IN HEME” (Universiteit Maastricht, priority 2020, published 2023)

Molecular target: T1, human apo-sGC (sGCα1 / mutant sGCβ1H105F) (Homo sapiens, UniProt Q02153, H105F)
T1 construct: His tag; made in house; host or cells: Sf9 cells infected with recombinant baculoviruses (provided by E. Martin); sonicated lysate, supernatant used unpurified
T1 sequence (Q02153 1-619 H105F): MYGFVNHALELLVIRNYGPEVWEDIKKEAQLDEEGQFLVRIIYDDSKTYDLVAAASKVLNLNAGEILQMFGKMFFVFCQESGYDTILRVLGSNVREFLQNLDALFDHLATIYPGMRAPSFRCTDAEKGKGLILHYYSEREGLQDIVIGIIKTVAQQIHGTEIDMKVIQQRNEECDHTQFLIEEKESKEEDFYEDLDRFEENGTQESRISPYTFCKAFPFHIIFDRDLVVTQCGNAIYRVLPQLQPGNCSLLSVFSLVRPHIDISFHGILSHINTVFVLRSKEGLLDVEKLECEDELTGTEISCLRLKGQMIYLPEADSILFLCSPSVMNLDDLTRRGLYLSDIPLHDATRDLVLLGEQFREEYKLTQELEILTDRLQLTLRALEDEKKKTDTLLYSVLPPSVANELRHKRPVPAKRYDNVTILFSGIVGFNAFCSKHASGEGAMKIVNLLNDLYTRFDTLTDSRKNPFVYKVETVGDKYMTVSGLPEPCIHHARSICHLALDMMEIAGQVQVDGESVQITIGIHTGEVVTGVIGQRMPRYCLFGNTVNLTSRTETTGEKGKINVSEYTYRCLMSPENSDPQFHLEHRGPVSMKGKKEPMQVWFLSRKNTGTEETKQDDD
T1 sequence (Q02108 1-690 partner): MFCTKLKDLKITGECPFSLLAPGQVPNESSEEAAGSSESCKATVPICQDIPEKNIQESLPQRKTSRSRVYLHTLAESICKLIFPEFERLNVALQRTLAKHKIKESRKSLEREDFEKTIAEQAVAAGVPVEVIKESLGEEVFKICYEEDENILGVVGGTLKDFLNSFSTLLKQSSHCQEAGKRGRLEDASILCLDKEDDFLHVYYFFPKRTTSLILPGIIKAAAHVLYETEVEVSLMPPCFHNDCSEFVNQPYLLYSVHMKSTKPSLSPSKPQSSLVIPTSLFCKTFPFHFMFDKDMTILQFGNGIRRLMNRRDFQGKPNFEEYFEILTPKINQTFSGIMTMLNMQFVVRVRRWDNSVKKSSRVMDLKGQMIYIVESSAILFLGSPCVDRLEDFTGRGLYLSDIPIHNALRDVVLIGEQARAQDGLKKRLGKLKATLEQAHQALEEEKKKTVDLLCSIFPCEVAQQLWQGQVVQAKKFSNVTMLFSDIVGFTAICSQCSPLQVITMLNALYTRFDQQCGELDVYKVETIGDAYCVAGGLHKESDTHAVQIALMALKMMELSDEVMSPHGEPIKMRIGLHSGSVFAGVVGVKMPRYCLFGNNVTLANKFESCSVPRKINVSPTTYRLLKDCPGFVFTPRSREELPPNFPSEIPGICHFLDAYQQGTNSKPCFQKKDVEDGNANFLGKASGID
Experiment: sGC activity of human apo-sGC expressed in SF-9 cells
Type: biochemical
Experimental: To measure sGC activity, cells were stimulated with 250 μM DEA/NO or 10 μM BAY58-2667 for 3 min at 37° C. Thereafter, cells were immediately lysed in 80% ethanol. Cells were scraped and, after evaporation of ethanol, re-suspended in assay buffer and sonicated. Measurement of sGC activity in crude homogenates of mouse tissue was performed as previously described (Nedvetsky et al., Brain Res. 2002; 950(1-2):148-154. doi: 10.1016/50006-8993(02)03015-9).[9] Briefly, all samples were measured as the formation of cGMP at 37° C. during 10 min in a total incubation volume of […] containing 50 mM triethanolamine-HCl (pH 7.4), 3 mM MgCl2, 3 mM glutathione (Carl Roth, Karlsruhe, Germany), 1 mM IBMX, […], 5 mM creatine phosphate, 0.25 mg/ml creatine kinase and 1 mM or 0.5 mM GTP. After adding sGC activator in the absence or presence of the sGC stimulator the reaction was started by application of GTP solution. […] Thereafter the amount of cGMP was subsequently determined by a commercial enzyme immunoassay kit (Enzo Life Sciences, Lorrach, Germany or Biotrend, Cologne, Germany). […]
Recombinant baculoviruses containing the cDNAs for the sGCa1 subunit with a His tag and mutant sGCβ31H105F with a His tag of human sGC were provided by E. Martin (Houston, Tex., USA). […] Protein concentrations were determined by the RC DC protein assay kit (Bio-Rad, Cat. no. 5000122).

With `Nc1nc(-c2nn(Cc3ccccc3F)c3ncccc23)ncc1C1CC1` [BAY 41-2272, 5-cyclopropyl-2-[1-(2-fluoro-benzyl)-1H-pyrazolo[3,4-b]pyridin-3-yl]-pyrimidin-4-ylamine] the “sGC activity / cGMP formation in presence of ODQ” value (10 μM BAY 41-2272 + 10 μM ODQ (FIG. 8)) was “improves the formation of cGMP” and the “sGC activity / cGMP production” value (10 μM BAY 41-2272 alone (FIG. 8)) was “activated and cGMP is (increasingly) produced”.
